“Also recorded” adds a separate entry of the source.
What was measured:
cortical neuron = assay: Perforated patch clamp electrophysiology of mouse brain slices; type: cell-based; conditions: for membrane current (current-voltage relation): geraniol vs. control
Method: Studies were conducted on mouse hippocampal brain slice preparations. In terms of the slice preparations, […] coronal brain slices were prepared from animals housed in a 12 hour light (ZT 0-12):12 hour dark (ZT 12-24) environment. Animals were anesthetized with isoflurane, decapitated, the brain rapidly removed and placed in ice cold, oxygenated (95% 02:5% C02), bicarbonate-buffered artificial cerebral spinal fluid (ACSF). A 1 cm^2 block of brain tissue containing the hippocampi was glued to a cutting surface and coronal slices were prepared using a Leica VT1000S microtome (Leica Microsystems). All slices were left to equilibrate for approximately one hour prior to the transfer to a recording chamber. Once transferred to the chamber, slices were continuously superfused with oxygenated ACSF at a rate of 3 ml/min @30° C. and recordings are generally made for the next 6-12 hours. Patch microelectrodes (5-8 MΩ) made from borosilicate glass (Garner Glass Co.) and filled with K^+ based internal patch solution composed of: (in mM) 120 K-acetate, 40 HEPES, 10 EGTA, 6 MgCl2, nystatin (450 μg/ml) or gramicidin B (5 μg/ml) and pluronic acid F127.
The perforated patch recording technique and will be used (Korn & Horn, 1989) and viable Hippocampal neurons were visually targeted using Infrared Differential Interference Contrast (IR-DIC) microscopy using a Leica DM LFSA scope. […] Recordings were made from 3 different patch rigs equipped with either […] patch clamp amplifiers interfaced via a Digidata 1322A to a PC computer or on, in terms of the studies performed on dissociated DRG neurons, a Zeiss Axoscop 200 inverted microscope equipped with an Axopatch 200B/Digidata 1322A using Pclamp 9.0 and Axoscope 9 software.
Test compounds were bath-applied by superfusion to examine for changes in excitability and/or attenuation of ion channels and the effects of compounds on evoked synaptic responses. Stimulating electrodes (concentric or bipolar) were placed within the slices and in accordance with the well known fiber tract pathways of passage for the DH and the hippocampus.

[1] = Nylon filament test of sensation after topical application (case studies); type: in vivo, human
Method: (§1) A natural blend of geranium oil and other essential oils (Table 1) was also tested in a panel of human neuropathic pain sufferers, some of whom experienced negative sensory phenomena. […] The geranium oil blend or geraniol was topically applied in therapeutically effective amounts to areas of the human body affected with symptoms of negative sensory symptoms. Dosage amount depended on the size of the patient's affected areas. […] Once administered, a typical positive response was reported typically within minutes.
7, 2008 and complained of numbness on the soles of their feet. Their sensation was tested with a nylon filament and the patient could not feel the filament on the ball of either foot. Geraniol was applied to the ball of one foot. After approximately 5 minutes the feet were retested with the nylon filament. The foot that had not been treated still could not detect the touch of the filament.
They could not feel a nylon filament used to test sensation on the bottom of either foot. They had geraniol applied to the left foot and the sensation was retested after 5 minutes. […] The patient was given geraniol to use on the left foot every other day.

[2] = Subject-reported relief of numbness and pain after topical application (case studies); type: in vivo, human
Method: as §1

CC(C)=CCC/C(C)=C/CO [geraniol, 2,6-Octadien-1-ol, 3,7-dimethyl-, (2E)-]
action potentials during current-voltage steps (cortical neuron; 10 mV steps (250 ms) from -110 to -20 mV, in presence of compound): inhibition of action potentials
membrane current (current-voltage relation) (cortical neuron; 10 mV steps (250 ms) from -110 to -20 mV): reduction in the membrane current amplitude; also recorded: reduction of membrane currents
membrane current (current-voltage relation) (cortical neuron; 10 mV steps (250 ms) from -110 to -20 mV, listed as Geraniol): reduction of membrane currents
action potential following depolarizing current pulse (cortical neuron; depolarizing current pulse of 0.4 nA): inhibition of action potential
net current reduction (current differential between control and tested compound) (cortical neuron; most negative voltage step (-110 mV), FIG. 3, ranking among samples): greatest inhibition
feeling in treated foot vs untreated foot ([1]; topical every other day, over 2 week period): continued to have more feeling than the right foot
sensation tested with nylon filament on treated foot ([1]; topical, retested after approximately 5 minutes, untreated foot as comparison): improvements in sensory functioning; also recorded: able to feel the nylon filament; also recorded: could detect feeling with a nylon filament
numbness / negative sensory phenomena, subject-reported [2]: improvements seen in subjectively reported symptoms
